The values that follow come from patent US9687845B2, “Self-loading microfluidic device and methods of use” (Wisconsin Alumni Research Foundation, priority 2011, dated 2017).

Read-outs that look alike come from different tables or passages of the source.

The test system of assay [1] is E. coli (UT189). Kind of assay: Growth in sugars, microfluidic device (phenol red colour change). Type of assay: cell-based. The conditions noted are these: E. coli (UT189); sugar 1% (w/v), LB with 0.05% phenol red pH 8.2. The protocol:
(§1) Self-loading microfluidic devices were prepared as described above. Reaction wells were filled with different sugar solutions including (1) cellbiose, (2) glycerol, (3) lactose, (4) mannitol, (5) mannose, (6) raffinose, (7) sucrose, (8) trehalose, (9) xylose, and (10) control (no sugar) (FIG. 28). The final concentration of the sugar in each chamber was 1% (w/v). After loading the sugar solutions, the liquid was evaporated as described above. The devices were then assembled and degassed by vacuum.
(§2) Cultures of A. baumannii-1, A. baumannii-2, K. pneumoniea-1, K. pneumoniea-2, S. aureus-1, S. aureus-2, E. coli (UT189), E. faecalis-1, E. faecalis-2, V. cholerae-1, and (11) V. cholerae-2 were grown for 15 hours in LB (pH 7.0). The cultures were then diluted at a ratio of 1:50 in LB containing 0.05% (w/v) phenol red (pH8.2) and added to individual devices using degas-driven flow. Growth of bacteria results in a pH change of the LB that causes a color change from red (illustrated in FIGS. 29 and 30 as filled chambers) to yellow (illustrated in FIGS. 29 and 30 as hatched chambers).

The test system of assay [2] is E. faecalis. The description is as above. The assay is classed as cell-based. Conditions: E. faecalis-1 and E. faecalis-2; by 18 hours of incubation. The protocol: as §1, §2
Assay [3] concerns K. pneumoniae. Described as above. The assay is classed as cell-based. The conditions noted are these: for Growth, Device: K. pneumoniae, sugar 1% (w/v), LB with 0.05% phenol red pH 8.2; for growth in device chamber: K. pneumoniea-1 and K. pneumoniea-2, by 4 hours of incubation. The protocol: as §1, §2
Assay [4] relates to S. aureus. Described as above. The assay is classed as cell-based. Conditions: for growth in device chamber: S. aureus-1, by 8 hours of incubation; for Growth, Device: S. aureus, sugar 1% (w/v), LB with 0.05% phenol red pH 8.2. The method, then: as §1, §2
Assay [5] concerns V. cholerae. Described as above. Type of assay: cell-based. Conditions: V. cholerae-1 and V. cholerae-2; by 4 hours of incubation. The method, then:
as §1, §2

Assay [6] deals with E. coli (UT189). Put plainly: Growth in sugars, culture tubes. Type of assay: cell-based. From the text:
(§3) Results observed in microfluidic devices are illustrated in FIGS. 29A-F and 30A-E. The predicted growth as compared to devices and culture tubes are summarized in Table 2.

In assay [7] the test system is E. faecalis. Kind of assay: Growth in sugars, culture tubes. Type of assay: cell-based.
Text: as §3

The test system of assay [8] is K. pneumoniae. Kind of assay: Growth in sugars, culture tubes. Type of assay: cell-based.
Text: as §3

In assay [9] the test system is S. aureus. Put plainly: Growth in sugars, culture tubes. The assay is classed as cell-based. The conditions noted are these: culture tubes.
Text: as §3

Assay [10] has as its system E. faecalis. The conditions noted are these: cited from earlier work.
For assay [11], the system named is S. aureus. Conditions: cited from earlier work.
Assay [12] relates to E. coli (UT189). Conditions: cited from earlier work.
In assay [13] the test system is E. coli (MG1655). Put plainly: MIC measurement using the self-loading microfluidic device. Type of assay: cell-based. The conditions noted are these: for MIC, Device: E. coli, 18 h at 35° C., CAMBH pH 8.2 with 1% glucose and 0.05% phenol red, dilution series 0.5-1024 μg/mL. The protocol: (§4) Minor adjustments were made to procedures mimicking the CLSI guidelines to perform MIC measurements using microfluidic devices prepared as described above. Antibiotic stock solutions (10 mg/mL in sterile deionized water) of vancomycin hydrochloride, tetracycline hydrochloride, and kanamycin monosulfate were used to prepare a 1:10 dilution series. Appropriate amounts of these dilutions were added to sterile deionized water to create a two-fold dilution series that varied from 0.5-1024 μg/mL. Antibiotic solution (2.94 μL) was added to each chamber with the lowest antibiotic concentration located closest to the inlet port and the highest antibiotic concentration located in the chamber closest to the vacuum well. After antibiotic loading, the device was placed in a laminar flow hood to evaporate the liquid. After the liquid was evaporated, the device was assembled by placing the layer of PDMS forming the channel section over the chamber layer containing the dried antibiotic such that the channels connected the chambers. The assembled device was then placed under vacuum.
(§5) The standardized culture was then diluted 1:200 in CAMBH media, pH 8.2 supplemented with 1% glucose and 0.05% phenol red to provide a colorimetric change upon growth. The device was removed from the vacuum and 20 μL of cell suspension was pipetted onto the inlet port. […] Bacterial growth changed the pH of the liquid nutrient media containing the indicator phenol red, and produced a visible color change that was used to identify the cell growth in chambers.

In assay [14] the test system is E. faecalis (1131). The description is as above. The assay is classed as cell-based. The conditions noted are these: 18 h at 35° C., CAMBH pH 8.2 with 1% glucose and 0.05% phenol red, dilution series 0.5-1024 μg/mL. The method, then: as §4, §5
In assay [15] the test system is K. pneumoniae. Described as above. The assay is classed as cell-based. Conditions: 18 h at 35° C., CAMBH pH 8.2 with 1% glucose and 0.05% phenol red, dilution series 0.5-1024 μg/mL. The method, then: as §4, §5
In assay [16] the test system is P. mirabilis (HI4320). The assay is described as above. The assay is classed as cell-based. The conditions noted are these: 18 h at 35° C., CAMBH pH 8.2 with 1% glucose and 0.05% phenol red, dilution series 0.5-1024 μg/mL. The protocol:
as §4, §5

In assay [17] the test system is E. faecalis (1131). Kind of assay: Off-chip MIC, broth dilution method according to CLSI protocols. The assay is classed as cell-based. Further details: unit not given beside the values. Conditions: CAMHB, 20 h at 35° C. (vancomycin 24 h). The method, then: (§6) Off-chip MIC assays using the broth dilution method according to CLSI protocols were performed as control experiments and to validate experimental data obtained with the microfluidic device.
For orientation: Dilution methods test growth across graded concentrations, often in twofold steps.

Assay [18] has as its system P. mirabilis (HI4320). The description is as above. Conditions: CAMHB, 20 h at 35° C. Further details: unit not given beside the values. The assay is classed as cell-based. The protocol: as §6
For assay [19], the system named is K. pneumoniae. Described as above. Type of assay: cell-based. The conditions noted are these: CAMHB, 20 h at 35° C. The method, then: as §6
In assay [20] the test system is E. coli (MG1655). The description is as above. Type of assay: cell-based. Further details: MIC, Broth: unit not given beside the values. Conditions: for MIC, Broth: E. coli, broth dilution, CAMHB, 20 h at 35° C. The method, then:
as §6

Assay [21] has as its system kanamycin-resistant strain of E. coli MG1655. Kind of assay: Susceptibility to multiple antibiotics on a single microfluidic device using breakpoint values. Type of assay: cell-based. Conditions: 18 h; for effect on growth of the strain: vancomycin 2, 4, 8 μg/mL, tetracycline 0.5, 1, 2 μg/mL, kanamycin 1, 2, 4 μg/mL. The source says: In this Example, a single microfluidic device was used to simultaneously test the susceptibility of the kanamycin-resistant strain of E. coli MG1655 described above to multiple antibiotics using breakpoint values.
In clinical microbiology, a strain is classified as susceptible, intermediate, or resistant based on the relationship of the MIC of an antibiotic to specified ‘breakpoint’ values. Breakpoint values are set by organizations, such as the CLSI, and take into consideration MIC values of wild type strains, pharmacokinetic/pharmacodynamic data, and clinical outcomes. Breakpoint values are available for specific clinically relevant pairings of bacterial species and antibiotics and enable clinical decisions without knowing the exact MIC value.
Specifically, vancomycin, tetracycline, and kanamycin were added to the reaction wells of a single device. The most common breakpoints for vancomycin (susceptible <2 μg/mL, resistant >2 μg/mL), tetracycline (susceptible <1 μg/mL, intermediate=2 μg/mL, resistant >2 μg/mL), and gentamicin (susceptible <2 μg/mL, intermediate=4 μg/mL, resistant >4 μg/mL) were used. As there are no published breakpoints available for kanamycin, the breakpoint values for the structurally related aminoglycoside, gentamicin, against aerobic bacteria was used. A microfluidic device with ten chambers was prepared as described in Example 1 above. The ten chambers were divided into three chambers for each antibiotic vancomycin (2, 4, 8 μg/mL), tetracycline (0.5, 1, 2 μg/mL), and kanamycin (1, 2, 4 μg/mL) and one chamber for a control containing no antibiotic.

Assay [22] has as its system kanamycin-resistant E. coli strain (from MG1655). Put plainly: microbe, parasite or virus in culture. Conditions: Escherichia coli, MG1655, 18 h, read-out: MIC of the resistant strain.
Experimental: Specifically, 100 μL of an overnight culture of E. coli MG1655 were plated on LB agar plates supplemented with 16 μg/mL kanamycin; the antibiotic concentration was ˜2× the MIC of kanamycin measured against E. coli MG1655. […] One of these colonies was characterized for its sensitivity to kanamycin in the microfluidic device. The kanamycin-resistant strain was compared to the wild type parent strain.
The devices were assembled and placed under vacuum for degassing. After the devices were removed from the vacuum, an aliquot (20 μL) of a suspension of cells of the resistant strain was introduced into the inlet port of one device and an aliquot (20 μL) of a suspension of cells of the wild type strain was introduced into the inlet port of the second device. Degas-driven flow filled and isolated the samples in the chambers. The devices were incubated for 18 h at 35° C. in a humidified incubator.
To eliminate external equipment needed for interpreting the test results, a pH sensor was incorporated to indicate cell growth. Specifically, the pH indicator phenol red (0.05% w/v) and glucose (1% w/v) were added to CAMHB media and adjusted the pH to 8.2. Phenol red was selected as it produces a distinct color change close to neutral pH and is not absorbed by PDMS. At the initial pH of the nutrient media, pH 8.2, phenol red appears bright red. […]
Assay [23] has the same test system. Kind of assay: microbe, parasite or virus in culture. The conditions noted are these: Escherichia coli, MG1655, read-out: MIC of the resistant strain, control broth dilution.
Experimental: A 1:10 dilution series of the stock solutions in cation-adjusted Mueller-Hinton broth (CAMHB) was prepared and added to CAMBH (pH 7.3) to create a two-fold series dilution in which the total volume was 1 mL. Cell solutions of E. faecalis (1131), P. mirabilis (HI4320), K. pneumoniae, and E. coli (MG1655) were prepared in 13×100 mm tubes by adjusting the concentration of cells in overnight cultures to match the turbidity of a 0.5 McFarland standard (˜10^8 CFU/mL) using CAMHB. The solutions were diluted 100-fold in CAMHB and 1 mL of the suspension was added to 1 mL of antibiotic solution—prepared as described above—to yield a final cell concentration of ˜5×10^5 CFU/mL. The cultures were incubated for 20 h in a humidified incubator at 35° C. (no shaking) with the exception of experiments with vancomycin and E. faecalis, which were incubated for 24 h according to CLSI protocols. The MIC was determined as the lowest concentration of antibiotic at which no growth was visible after incubation.
Thus, the MIC of the kanamycin-resistant E. coli strain and the susceptible strain was determinable by visually identifying the chamber containing the lowest concentration of kanamycin in which the pH indicator remained red.
Wherever Growth, Predicted is given: key: + indicates growth; − indicates no growth.

As to `OC[C@H]1O[C@H](O[C@H]2O[C@H](CO)[C@@H](O)[C@H](O)[C@H]2O)[C@H](O)[C@@H](O)[C@@H]1O` [Trehalose, trehalose], the figures for the “Growth, Device” value in [1], in [3] and in assay [4] were “−”, “+” and “+”, respectively. Further, the “growth in device chamber” value in assay [2], in assay [3], in assay [4] and in [5] was “grew” throughout. For the same compound, the “Growth, Tube” value in assay [6], in assay [7], in [8] and in assay [9] was “+” in each case. Moreover, the “Growth, Predicted” value in assay [10], in assay [11] and in [12] was “+” throughout.
For the compound `CN(C)[C@@H]1C(O)=C(C(N)=O)C(=O)[C@@]2(O)C(O)=C3C(=O)c4c(O)cccc4[C@@](C)(O)[C@H]3C[C@@H]12.Cl` [tetracycline, tetracycline hydrochloride], the “MIC, Device” value in assay [13] is on record as 2; in assay [14] it was 64; in assay [15], 8; in assay [16] it was 128. The “MIC, Broth” value in assay [17] worked out at 32; in assay [18], 256; in assay [19] it was 8; in assay [20], 1. Also, in assay [21], the “effect on growth of the strain” value is “inhibited the growth”. The “phenotype of the strain by breakpoint values” in [21] (tetracycline breakpoints) was “intermediate (intermediate=2 μg/mL)”.
Regarding `NC[C@H]1O[C@H](O[C@H]2[C@H](O)[C@@H](O[C@H]3O[C@H](CO)[C@@H](O)[C@H](N)[C@H]3O)[C@H](N)C[C@@H]2N)[C@H](O)[C@@H](O)[C@@H]1O` [kanamycin, kanamycin monosulfate], the “MIC, Device” value in assay [13] is reported as 4; in assay [14] it was 128; in assay [15] it was 2; in assay [16], 8. Besides, the MIC in assay [13] (Escherichia coli, MG1655, Example 5, 18 h at 35° C., phenol red indicator, read-out: MIC of the wild type strain) was 4 µg/mL; in assay [20] (Escherichia coli, MG1655, Example 5, standard liquid broth dilution assay, read-out: MIC of the wild type strain, control broth dilution) it was 8 µg/mL; in [22], 64 µg/mL; in assay [23], 128 µg/mL. Further, the “MIC, Broth” value is reported as 64 in [17], 4 in [18], 2 in [19] and 8 in [20]. Further, the “effect on growth of the strain” value in assay [21] was “did not have any effect”.
Turning to `OC[C@H]1O[C@@](CO)(O[C@H]2O[C@H](CO)[C@@H](O)[C@H](O)[C@H]2O)[C@@H](O)[C@@H]1O` [Sucrose, sucrose], the “Growth, Device” value is “−” in assay [1], “+” in assay [3] and “+” in [4]. The “growth in device chamber” value in assay [2], in assay [3], in [4] and in assay [5] was “grew” each time. The “Growth, Tube” value in assay [6] is on record as “−”; in assay [7], “+”; in assay [8], “+”; in assay [9], “+”. The entries for the “Growth, Predicted” value in assay [10], in assay [11] and in assay [12] were “+”, “+” and “−”, respectively.
